Data from BigSolDB 2.1.

CC(=O)N1CCN(c2ccc(OC[C@@H]3CO[C@@](Cn4ccnc4)(c4ccc(Cl)cc4Cl)O3)cc2)CC1 (racemic)
Details	solubility (mole fraction)
in PEG-200, 298.2 K	0.00611
in PEG-200, 303.2 K	0.00718
in PEG-200, 308.2 K	0.00908
in PEG-200, 313.2 K	0.0118
in PEG-200, 318.2 K	0.0144

in water
Details	solubility (mole fraction)
298.2 K	4e-07
303.2 K	5e-07
308.2 K	5e-07
313.2 K	7e-07
318.2 K	9e-07
